Test results from ChEMBL document CHEMBL3301555, “MMV Malaria Box screening in pLDH viability assay against Plasmodium falciparum gametocytes”.

system: Plasmodium falciparum; experiment: MMV: Measure of pLDH activity as indication of parasite viability. Gametocytogenesis of 3D7 Plasmodium falciparum strain was induced in vitro and asexual parasites were depleted with N-acetylglucosamine. Gametocytes were treated with dihydroartemisinin, epoxomicin, methylene blue, primaquine, puromycin or chloroquine in 96-well plates and the pLDH activity was evaluated using a modified Makler protocol. Mosquito infectivity was measured by the standard membrane feeding assay.; assay type: functional; set-up: concentration or dose not given beside the values

SMILES | Growth Inhibition
COc1ccc2c(c1)C1(Nc3ccccc3-c3nc4ccccc4n31)C(=O)N2 (configuration not stated) | 23.3334%
COc1cccc(Cn2c(Oc3ccccc3)nc3c2c(=O)n(C)c(=O)n3C)c1 | 5.4442%
CCOc1c(Cl)cc(CNCC(O)c2ccccc2)cc1OC (configuration not stated) | 20.5848%
OC(CNCC1CCCO1)Cn1c2ccc(Cl)cc2c2cc(Cl)ccc21 (configuration not stated) | 10.6906%
COc1ccc2nc(C)cc(Nc3ccccc3O)c2c1 | 10.6942%
CCn1nc(-c2ccc(C(=O)OC)cc2)nc2c(=O)n(C)c(=O)nc1-2 | 19.8788%
CCOc1ccccc1CN1CCc2nc3cc(C(C)(C)C)nn3c(O)c2C1 | 8.4768%
Cc1cc(N2CCCC2)nc(Nc2ccc(NC(=O)CCc3ccccc3)cc2)n1 | 14.278%
CN1CCN(c2ncnc3c2[nH]c2ccc(Cl)cc23)CC1 | 7.405%
CC1(c2ccccc2)Nc2ccccc2-c2nc3ccccc3n21 (configuration not stated) | 8.0798%
O=C1c2ccccc2-c2nnc(-c3ccc(Br)cc3)cc21 | 29.9528%
O=C(Nc1ccc(Br)cc1)Nc1cccc(Cl)c1 | 8.8754%
CN(C)CCNc1cc(-c2ccccc2)nc2ccccc12 | 2.7026%
CCOC(=O)C1=C(C)N=c2sc(=Cc3ccccc3O)c(=O)n2C1c1ccc(OC)c2ccccc12 (configuration not stated) | 6.5248%
CCOC(=O)C1=C(C)N=c2sc(=Cc3cc(Cl)ccc3O)c(=O)n2C1c1ccc(OC)cc1 (configuration not stated) | 18.9955%
Cc1nc2ccccc2c(O)c1CC=C(Cl)Cl | 28.4855%
FC(F)(F)c1cccc(Nc2nc3ccccc3nc2Nc2cccc(C(F)(F)F)c2)c1 | 23.1188%
COc1ccc2nc(C)cc(Nc3ccc(Cl)cc3)c2c1 | 15.7236%
CCC(O)c1ccc(Br)cc1NC(=O)c1cccc(Cl)c1 (configuration not stated) | 24.26%
COc1ccc2nc(C)cc(Nc3cccc(O)c3)c2c1.Cl | 10.892%
O=c1nc(C=Cc2ccc(Br)cc2)oc2ccccc12 | 11.7922%
COc1ccc2nc(N)nc(C)c2c1 | 7.6614%
CC(=O)c1ccc(NC(=O)CSc2nc(-c3ccccc3Cl)ns2)cc1 | 4.3696%
O=C(NC1CCCCC1)C(c1cccs1)N(CCc1ccccc1)C(=O)c1ccco1 (configuration not stated) | 7.269%
CCC(=O)Nc1nnc(Cc2ccc(OC)c(OC)c2)s1 | 9.8854%
Cc1ccnc(NC(c2cccc(OCc3ccccc3)c2)c2ccc3cccnc3c2O)c1 (configuration not stated) | -1.2034%

SMILES | Growth Inhibition
Nc1ccc(-c2nc3cc(Cc4ccc5[nH]c(-c6ccc(N)cc6)nc5c4)ccc3[nH]2)cc1 | 9.5548%
CCCCOC(=O)c1ccc(Nc2cc(C)nc3ccc(OC)cc23)cc1 | 15.2218%
O=C(Nc1ccc(CN2CCOCC2)cc1)c1ccc(-c2cc(Cl)ccc2Cl)o1 | 12.3128%
Cc1cc(Nc2cccc(F)c2)nc(NCc2ccccc2)n1 | 7.8192%
O=c1cc(NC2CCN(CCCc3ccccc3)CC2)c2cc(Cl)ccc2o1 | 18.578%
Cc1ccc(OCCCCCCNCCO)c(C)c1 | 3.067%
COc1cccc(C(=O)Nc2ccc(-c3nc4ccccc4[nH]3)cc2)c1 | 15.5734%
COCCn1c(C)nc2ccccc2c1=O | 4.3894%
O=C(Nc1cccc(-c2nc3ccccc3[nH]2)c1)c1cccc(NC(=O)c2ccco2)c1 | 6.1984%
O=C(NC1CCN(Cc2ccccc2)CC1)c1cc(-c2cccnc2)nc2ccc(Cl)cc12 | 12.1742%
CCN(Cc1ccccc1)C1CCN(Cc2cc(Br)ccc2O)CC1.O=C(O)C(=O)O | 47.2545%
CCOc1ccc(-n2cc(-c3ccccc3)c3c(SCc4cc(C)ccc4C)ncnc32)cc1 | 2.789%
Cc1ccc(C)c(Cn2c(N3CCC(C(=O)NCc4cccs4)CC3)nc3ccccc32)c1 | 5.2598%
CC1CCN(Cc2c(O)ccc3cc(-c4nc5ccccc5s4)c(=O)oc23)CC1 | 9.8172%
COc1ccc(C2C(C(=O)Nc3cccc(OC)c3)c3ccccc3C(=O)N2C2CCCCC2)cc1 (configuration not stated) | -2.347%
CCOC(=O)c1cnc2ccc(Cl)cc2c1NCCCN(C)C | 5.776%
CCOc1ccccc1NC(=O)CN1CCN(C(=O)c2ccco2)CC1 | 5.6622%
c1ccc2c(NCCc3c[nH]c4ccccc34)c3ccccc3nc2c1 | 22.8248%
O=C(Nc1ccc(C23CC4CC(CC(c5ccccc5)(C4)C2)C3)cc1)c1cccs1 | 4.2535%
CCN(CC)CCCNc1ccnc2cc3ccccc3cc12 | 22.6902%
O=C1c2ccccc2C2=Nc3ccccc3SC(c3cccc(F)c3)C12 (configuration not stated) | 29.827%
Cc1ccccc1OCCSc1nc2ccc(NC(=O)c3ccccc3)cc2s1 | -3.751%
CCOC(=O)c1cnc2c(C)cccc2c1Nc1ccc(C(C)=O)cc1 | 14.9964%
COc1ccc(-c2nonc2NC(=O)c2cccc(Cl)c2)cc1OC | 6.9258%
Cc1cc(NC(=O)c2ccc(-c3ccccc3)cc2)no1 | 4.97%
O=C(Nc1ccc(-c2nc3cc4ccccc4cc3[nH]2)cc1)c1cccc(Br)c1 | 12.54%

SMILES | Growth Inhibition
CCOc1cc2c(cc1OCC)C(c1cc(C)c(O)c(C)c1)NCC2.Cl (configuration not stated) | 25.854%
O=C1CC(O)(C(F)(F)C(F)(F)F)Oc2ccccc21 (configuration not stated) | 1.4958%
COc1cc(SC)ccc1C(=O)N1CCCC(C)C1 (configuration not stated) | 14.445%
Cc1ccc(C2CC(C(F)(F)F)n3nc(C(=O)N4CCN(C(c5ccccc5)c5ccccc5)CC4)cc3N2)cc1 (configuration not stated) | 4.7565%
Cc1ccc2nc(C)cc(Nc3cccc(C(F)(F)F)c3)c2c1.Cl | -5.193%
CC(C)c1ccc(CNCC(O)c2ccccc2)cc1.Cl (configuration not stated) | 37.0308%
CC(C)(C)c1ccc(C(=O)Nc2c3c(nn2-c2cccc(Cl)c2)CSC3)cc1 | 9.0986%
CCOc1cc2c(cc1OCC)C(c1cc(Cl)c(O)c(OCC)c1)NCC2 (configuration not stated) | 16.0386%
COc1ccc(N2CCN(C(CNC(=O)CC(C)(C)C)c3ccc4c(c3)OCO4)CC2)cc1 (configuration not stated) | 14.9208%
CCCCCCn1c(=N)n(CC(O)COc2cccc(C)c2)c2ccccc21.Cl (configuration not stated) | 34.1668%
Cc1ccc(NC(=O)Nc2cccc(Cl)c2)cc1F | 3.3088%
O=C(O)C(=O)O.Oc1ccc(Br)cc1CN1CCN(Cc2cccc(F)c2)CC1 | 29.456%
COc1ccc(-c2cc(=O)oc3c4c(ccc23)OCN(Cc2ccc(F)cc2)C4)cc1 | 25.9468%
CCOC(=O)C1(Cc2ccccc2)CCN(Cc2cccc(OC)c2O)CC1 | 37.59%
Oc1ccc(C(=C(Cl)Cl)c2ccc(O)cc2)cc1 | 9.2564%
CCOc1ccc2c(c1)CN(Cc1ccc(Cl)cc1)CO2 | 25.403%
CC(C)(C)c1ccc2c(c1)CN(Cc1ccc(Cl)cc1)CO2 | 36.3995%
CCCCC(O)(c1ccc(Cl)cc1)C(CN1CCOCC1)c1ccc(Cl)cc1.Cl (configuration not stated) | 3.244%
O=c1nc(C=Cc2ccc(Cl)cc2)oc2ccccc12 | 11.0552%
O=C(NCc1ccco1)C1CCN(S(=O)(=O)c2ccc(Br)cc2)CC1 | 6.982%
CN(C)c1ccc(N2C(N)=NC(N)=NC2(C)C)cc1 | 5.041%
COc1ccc(Nc2nc(NCc3ccccc3)c3ccccc3n2)cc1 | 17.5424%
COc1ccc(OC)c(C2C3=C(CC(C)(C)CC3=O)N(c3ccc(Cl)c(Cl)c3)C3=C2C(=O)CC(C)(C)C3)c1 | 21.894%
COc1ccc(C(=O)NC(c2ccccc2Cl)c2cc(Cl)c3cccnc3c2O)cc1 (configuration not stated) | 27.7302%
Cc1cc(=O)oc2c1ccc1oc(C(=O)c3ccccc3)c(C)c12 | 19.4%
COc1ccc(CN2CCN(Cc3ccccc3)CC2)c(O)c1 | 26.2585%

SMILES | Growth Inhibition
COc1cc2c(cc1OC)C1=NNC(=O)C1=NC(C)(C)C2 | 35.8316%
COc1ccc2c(c1OC)C(=O)N1c3ccccc3N=C(c3ccc(C)cc3)CC21 (configuration not stated) | 14.488%
CCCCCCc1cc(O)c2c3c(c(=O)oc2c1)CCC(C)C3 (configuration not stated) | 26.585%
Cl.OC(CNCc1ccccc1)Cn1c2ccccc2c2ccccc21 (configuration not stated) | 33.103%
COc1ccc(CCNC(=O)c2cc(S(=O)(=O)N3CC(C)CC(C)C3)ccc2Sc2ccc(F)cc2)cc1OC (configuration not stated) | 10.1532%
CCOc1ccc(Nc2c3ccccc3nc3ccccc23)cc1.Cl | 2.291%
CCCCc1c(C)nc2c(OC)cccc2c1O | 10.7044%
OC1CCCCC1C1(NC(=S)Nc2ccccc2)CCCCC1 (configuration not stated) | -6.2185%
OC1=C2C(=Nc3ccccc3SC2c2ccc(Br)cc2)c2ccccc21 (configuration not stated) | 30.3526%
COc1ccc(C)c2sc(N(Cc3cccnc3)C(=O)c3ccc(C#N)cc3)nc12 | -12.2204%
Clc1ccc2c(N3CCCC3)ccnc2c1 | 18.4524%
CCOC(=O)C1CCN(C(=O)CN2C(=O)c3ccccc3C2c2c[nH]c3ccccc23)CC1 (configuration not stated) | 48.711%
CCCCCCC(O)(c1ccc(F)cc1)C(CN1CCOCC1)c1ccccc1.Cl (configuration not stated) | -0.4664%
COc1cc(OC)cc(N2C(=O)N(Cc3ccc(C(C)(C)C)cc3)c3ccccc3S2(=O)=O)c1 | 5.995%
CCOc1ccc(CCNC(=O)c2cccs2)cc1OCC | 6.4232%
COc1ccc(C(=O)C2CC2c2ccc(Cl)cc2)cc1 (configuration not stated) | 8.002%
CCCCCn1c(=N)n(CC(O)COc2cccc(C)c2)c2ccccc21.Cl (configuration not stated) | 34.3056%
O=c1c2c([nH]c3ccccc13)CCCC2 | 19.1396%
COc1ccccc1N1C(=N)SC(=Cc2ccc(OCc3ccccc3F)cc2)C1=O | 14.0558%
CCN1CCN(c2c(C(=O)c3ccccc3)cnc3cc(OC)c(OC)cc23)CC1 | -1.335%
Cc1c(C)n(CC(O)CNC2CCCCC2C)c2ccccc12 (configuration not stated) | 42.7668%
Cc1ccc(S(=O)(=O)c2c(COC(=O)c3cccc(C)c3)c(-c3ccccc3)nn2C)cc1 | 4.058%
CCOC(=O)c1c[nH]c2c(CC)cccc2c1=O | 3.164%
CCCCN(CCCC)S(=O)(=O)c1ccc(NC(=O)c2ccco2)cc1 | 9.666%
